From patent US20260243940A1, “COMPOUND, POLYMERIZABLE COMPOSITION, CURED PRODUCT, OPTICAL FILM, POLARIZING PLATE, AND IMAGE DISPLAY DEVICE” (FUJIFILM Corporation, priority 2019, published 2026) come the findings set out here.

Series [1] is described as follows: Solubility in cyclopentanone. It counts as physicochemical. Particulars: for Solubility: heated and stirred at 50° C. for 1 minute, left at 20° C. for 10 minutes, concentration lowered from 40% in 5% steps. As for the experimental part: Cyclopentanone was added to 25 mg of each synthesized compound so that the concentration of each compound was 40% by mass, and the mixture was heated and stirred at 50° C. for 1 minute.
Then, the mixture was left to stand at 20° C. for 10 minutes, and in a case where there is no undissolved residue or precipitation, it is determined that the mixture can be dissolved at 40% by mass.
In a case where there was an undissolved residue or precipitation, cyclopentanone was further added to the mixture to reduce the concentration by 5% by mass, an operation of heating and stirring at 50° C. for 1 minute and then leaving the mixture stand at 20° C. for 10 minutes was repeatedly performed until there was no undissolved residue or precipitation, thereby confirming the solubility.

A short description of series [2]: Precipitation suppression (recrystallization temperature on cooling, hot stage under polarizing microscope). Particulars: for Precipitation suppression: class by recrystallization temperature, heated to isotropic phase, then lowered at 5° C./min. It is filed as physicochemical. As for the experimental part:
Two polarizers of an optical microscope (ECLIPSE E600 POL, manufactured by Nikon Corporation) were arranged so that they were orthogonal to each other, and a sample stand was set between the two polarizers.
Then, a small amount of each synthesized compound was placed on a slide glass, and the slide glass was set on a hot stage placed on a sample stand. While observing the state of the sample with a microscope, the temperature of the hot stage was raised at 5° C./min, and the type of liquid crystal phase and the temperature at which phase transition occurred were recorded from the state of the sample.
In addition, for the recrystallization temperature, the temperature was elevated up to an isotropic phase and then lowered at 5° C./min, and a temperature at which crystals were precipitated was recorded.
Based on the results of the recrystallization temperature measured by the above-mentioned method for evaluating the phase transition temperature, the evaluation was made according to the following standard. The results are shown in Table 3 below. • A: Lower than 50° C. • B: 50° C. or higher and 100° C. or lower • C: Higher than 100° C. and 150° C. or lower • D: Higher than 150° C. and 180° C. or lower

Consider `C=CC(=O)OCCCCOC(=O)C1CCC(C2CCC(C(=O)Oc3ccc(OC(=O)C4CCC(C5CCC(C(=O)OCCCCOC(=O)C=C)CC5)CC4)c4ccccc34)CC2)CC1` (centres unmarked) [Compound 1-1], for which, in series [1], the Solubility came to 20 % by mass. Also, the Precipitation suppression result in series [2] is “D (Higher than 150 °C and 180 °C or lower)”.

For `C=CC(=O)OCCCCOC(=O)C1CCC(C2CCC(C(=O)Oc3cc(C)c(OC(=O)C4CCC(C5CCC(C(=O)OCCCCOC(=O)C=C)CC5)CC4)c4ccccc34)CC2)CC1` (centres unmarked) [Compound 1-2], the Solubility in series [1] is on record as 25 % by mass. Also, the Precipitation suppression entry in series [2] was “C (Higher than 100 °C and 150 °C or lower)”.

For `C=CC(=O)OCCCCOC(=O)C1CCC(C2CCC(C(=O)Oc3cc(OC)c(OC(=O)C4CCC(C5CCC(C(=O)OCCCCOC(=O)C=C)CC5)CC4)c4ccccc34)CC2)CC1` (centres unmarked) [Compound 1-3], the Solubility in series [1] is recorded as 20 % by mass. Further, in series [2], the Precipitation suppression entry is “C (Higher than 100 °C and 150 °C or lower)”.

Turning to `C=CC(=O)OCCCCOC(=O)C1CCC(C2CCC(C(=O)Oc3cc(OCC)c(OC(=O)C4CCC(C5CCC(C(=O)OCCCCOC(=O)C=C)CC5)CC4)c4ccccc34)CC2)CC1` (centres unmarked) [Compound 1-4], the Solubility in series [1] is greater than 40 % by mass. Moreover, the Precipitation suppression entry in series [2] is “B (50 °C or higher and 100 °C or lower)”.

In turn, `C=CC(=O)OCCCCOC(=O)C1CCC(C2CCC(C(=O)Oc3cc(C(=O)OC)c(OC(=O)C4CCC(C5CCC(C(=O)OCCCCOC(=O)C=C)CC5)CC4)c4ccccc34)CC2)CC1` (centres unmarked) [Compound 1-5] showed a Solubility in series [1] greater than 40 % by mass. The Precipitation suppression entry in series [2] is “B (50 °C or higher and 100 °C or lower)”.

As for `C=CC(=O)OCCCCOC(=O)C1CCC(C2CCC(C(=O)Oc3ccc(OC(=O)C4CCC(C5CCC(C(=O)OCCCCOC(=O)C=C)CC5)CC4)c4cc(C)ccc34)CC2)CC1` (centres unmarked) [Compound 1-6], the Solubility in series [1] was 35 % by mass. Also, the Precipitation suppression result in series [2] is “C (Higher than 100 °C and 150 °C or lower)”.

Compound `C=CC(=O)OCCCCOC(=O)C1CCC(C2CCC(C(=O)Oc3ccc(OC(=O)C4CCC(C5CCC(C(=O)OCCCCOC(=O)C=C)CC5)CC4)c4c(C)cccc34)CC2)CC1` (centres unmarked) [Compound 1-7] returned a Solubility in series [1] of 25 % by mass. The Precipitation suppression result in series [2] was “C (Higher than 100 °C and 150 °C or lower)”.

Regarding `C=CC(=O)OCCCCOC(=O)C1CCC(C2CCC(C(=O)Oc3ccc(OC(=O)C4CCC(C5CCC(C(=O)OCCCCOC(=O)C=C)CC5)CC4)c4c(OCC)cccc34)CC2)CC1` (centres unmarked) [Compound 1-8], the Solubility in series [1] is recorded as 20 % by mass. Also, the Precipitation suppression result in series [2] is “B (50 °C or higher and 100 °C or lower)”.

In the case of `C=CC(=O)OCCCCOC(=O)C1CCC(C2CCC(C(=O)Oc3ccc(OC(=O)C4CCC(C5CCC(C(=O)OCCCCOC(=O)C=C)CC5)CC4)c4c(OCCCC)cccc34)CC2)CC1` (centres unmarked) [Compound 1-9], the Solubility in series [1] is reported as 20 % by mass. In addition, in series [2], the Precipitation suppression entry is listed as “A (Lower than 50° C.)”.

In series [1], `C=CC(=O)OCCCCOC(=O)C1CCC(C2CCC(C(=O)Oc3ccc(OC(=O)C4CCC(C5CCC(C(=O)OCCCCOC(=O)C=C)CC5)CC4)c4c(OCCCCCCCC)cccc34)CC2)CC1` (centres unmarked) [Compound 1-10] registered a Solubility of 30 % by mass. In addition, in series [2], the Precipitation suppression entry is “B (50 °C or higher and 100 °C or lower)”.

In series [1], `C=CC(=O)OCCCCOC(=O)C1CCC(C2CCC(C(=O)Oc3ccc(OC(=O)C4CCC(C5CCC(C(=O)OCCCCOC(=O)C=C)CC5)CC4)c4c(OC(C)=O)cccc34)CC2)CC1` (centres unmarked) [Compound 1-11] showed a Solubility of 35 % by mass. In series [2], the Precipitation suppression entry is reported as “A (Lower than 50° C.)”.

Compound `C=C(C)C(=O)OCCCCOC(=O)C1CCC(C2CCC(C(=O)Oc3ccc(OC(=O)C4CCC(C5CCC(C(=O)OCCCCOC(=O)C(=C)C)CC5)CC4)c4c(OC(C)=O)cccc34)CC2)CC1` (centres unmarked) [Compound 1-12] displayed a Solubility in series [1] of 35 % by mass. In addition, in series [2], the Precipitation suppression result is “A (Lower than 50° C.)”.

For the compound `C=CC(=O)OCCOC(=O)C1CCC(C2CCC(C(=O)Oc3ccc(OC(=O)C4CCC(C5CCC(C(=O)OCCOC(=O)C=C)CC5)CC4)c4c(OC(C)=O)cccc34)CC2)CC1` (centres unmarked) [Compound 1-13], the Solubility in series [1] is listed as 30 % by mass. In series [2], the Precipitation suppression entry was “A (Lower than 50° C.)”.

Take `C=CC(=O)OCCOCCOCCOC(=O)C1CCC(C2CCC(C(=O)Oc3ccc(OC(=O)C4CCC(C5CCC(C(=O)OCCOCCOCCOC(=O)C=C)CC5)CC4)c4c(OC(C)=O)cccc34)CC2)CC1` (centres unmarked) [Compound 1-15]: the Solubility in series [1] is greater than 40 % by mass. The Precipitation suppression entry in series [2] is reported as “A (Lower than 50° C.)”.

For `C=CC(=O)OCCCCOC(=O)C1CCC(C2CCC(C(=O)Oc3ccc(OC(=O)C4CCC(C5CCC(C(=O)OCCCCOC(=O)C=C)CC5)CC4)c4c(OCC)ccc(OCC)c34)CC2)CC1` (centres unmarked) [Compound 1-16], in series [1], the Solubility is greater than 40 % by mass. Also, the Precipitation suppression result in series [2] is reported as “A (Lower than 50° C.)”.

In series [1], `C=CC(=O)OCCCCOC(=O)C1CCC(C2CCC(C(=O)Oc3ccc(OC(=O)C4CCC(C5CCC(C(=O)OCCCCOC(=O)C=C)CC5)CC4)c4c(OC(C)=O)ccc(OC(C)=O)c34)CC2)CC1` (centres unmarked) [Compound 1-17] had a Solubility of 20 % by mass. In addition, the Precipitation suppression entry in series [2] is “C (Higher than 100 °C and 150 °C or lower)”.

Turning to `C=CC(=O)OCCCCOC(=O)C1CCC(OC(=O)C2CCC(C(=O)Oc3ccc(OC(=O)C4CCC(C(=O)OC5CCC(C(=O)OCCCCOC(=O)C=C)CC5)CC4)c4ccccc34)CC2)CC1` (centres unmarked) [Compound 2-1], the Solubility in series [1] was found to be 10 % by mass. For the same compound, in series [2], the Precipitation suppression entry was “C (Higher than 100 °C and 150 °C or lower)”.

`C=CC(=O)OCCCCOc1ccc(C(=O)Oc2ccc(C(=O)Oc3ccc(OC(=O)c4ccc(OC(=O)c5ccc(OCCCCOC(=O)C=C)cc5)cc4)c4c(OC(C)=O)cccc34)cc2)cc1` [Compound 2-2] came in with a Solubility in series [1] of 15 % by mass. Moreover, in series [2], the Precipitation suppression entry was “C (Higher than 100 °C and 150 °C or lower)”.

`C=CC(=O)OCCCCOC(=O)C1CCC(C2CCC(C(=O)Oc3ccc(OC(=O)C4CCC(C5CCC(C(=O)OCCCCOC(=O)C=C)CC5)CC4)c4c(OS(C)(=O)=O)cccc34)CC2)CC1` (centres unmarked) [Compound 2-3] displayed a Solubility in series [1] of 25 % by mass. Further, the Precipitation suppression result in series [2] is given as “A (Lower than 50° C.)”.

`C=CC(=O)OCCCCOC(=O)C1CCC(C2CCC(C(=O)Oc3ccc(OC(=O)C4CCC(C5CCC(C(=O)OCCCCOC(=O)C=C)CC5)CC4)c4c(OC(=O)CCl)cccc34)CC2)CC1` (centres unmarked) [Compound 2-4] registered a Solubility in series [1] of 20 % by mass. Besides, the Precipitation suppression result in series [2] is “A (Lower than 50° C.)”.

Consider `C=CC(=O)OCCCCOc1ccc(C(=O)Oc2ccc(OC(=O)c3ccc(OC(=O)c4ccc(OC(=O)c5ccc(OCCCCOC(=O)C=C)cc5)cc4)c(C)c3)cc2)cc1` [compound 2, reference compound], for which the Solubility in series [1] was less than 5 % by mass. In addition, the “solubility (in words)” value in series [1] (summary of Table 3) is listed as “deteriorated”. Besides, the Precipitation suppression entry in series [2] is “C (Higher than 100 °C and 150 °C or lower)”. Moreover, in series [2] (summary of Table 3), the “precipitation suppression (in words)” value was “deteriorated”.
